We go through 3 molecules from patent publication US20260306579A1, “COMPOSITIONS AND METHODS FOR TREATMENT OF SEPTIC SHOCK” (PEROXITECH THERAPEUTICS, INC., priority 2023, published 2026).

“Also recorded” adds a separate entry of the source. Peptide text beside a SMILES is read from it.

One data set concerns pancreatic PLA2. To be noted: role: inhibitor; background statement; cited from earlier work.
For the next data set, the system named is Prdx6. To be noted: role: inhibitor; background statement; cited from earlier work.
For the next data set, the system named is ALI in mice. To be noted: variety of mouse models of ALI; cited from earlier work.
Data set [1] deals with LPS-induced sepsis in pigs. Description: Adverse effects in the LPS-induced ALI model in pigs / tolerability statements. Details: species or system Yorkshire pigs (Sus scrofa domesticus). To be noted: pig, in vivo; listed as PIP-2. The method, then:
Prior to start of the experiment, the battery of systemic, cardiovascular, and pulmonary tests was carried out. These are called baseline measurements. Pigs were infused IV (zero time) with: Group 1, liposomes alone, no LPS (control, n=2); Group 2, LPS+liposomes (ALI untreated, n=6); and Group 3, LPS+PIP-2 in liposomes (ALI treated, n=12). Technical personnel responsible for animal care were “blinded” to the treatment conditions. LPS was given as an IV infusion of 50 ug/kg body weight over the first hour of the experiment. […] Either liposomes alone (Group 2) or PIP-2 in liposomes (Group 3) was infused as a “slow” bolus at the end of the LPS infusion. Liposomes were given at 2.22 mg/kg body weight. PIP-2 was given at 20 mg/kg body weight. Based on the measured encapsulation efficiency of ~15-20%, the IV administered PIP-2 was ~3-4 mg/kg body weight in liposomes and the remainder was in aqueous solution; presumably, the encapsulated PIP-2 was internalized by cells while the unencapsulated PIP-2 remained extracellular.

For data set [2] the following is noted: discussion statement, no data shown; cited from earlier work.

`CCCCCCCCCCCCCCCCOCC(COCC(F)(F)F)OP(=O)(O)OC` (stereo not drawn) [MJ33]: the “inhibition of other PLA2 enzymes (in words)” value in the data set on pancreatic PLA2 is “inhibits various PLA2 enzymes such as pancreatic PLA2”. In addition, in the data set with Prdx6, the “inhibition of aiPLA2 / PLA2 activity of Prdx6 (in words)” value is “bind to Prdx6 preventing aiPLA2 activity”. In addition, the “effect on lung injury in mouse ALI models (in words)” value in the data set with ALI in mice is given as “can significantly ameliorate lung injury; also recorded: markedly protective effect against lung injury”.

Take `CC[C@H](C)[C@H](NC(=O)[C@H](CCC(N)=O)NC(=O)[C@H](Cc1c[nH]cn1)NC(=O)[C@H](CCCNC(=N)N)NC(=O)[C@H](Cc1ccccc1)NC(=O)[C@H](CC(=O)O)NC(=O)[C@H](Cc1c[nH]cn1)NC(=O)[C@@H](N)CC(C)C)C(=O)N[C@@H](CC(C)C)C(=O)O` [SEQ ID NO: 2] (H-LHDFRHQIL-OH): the “adverse side-effects / toxicity (in words)” value in data set [1] was “no evidence of adverse side-effects; also recorded: non-toxic”. The “tissue half-life (in words)” value in data set [2] is recorded as “relatively favorable tissue half-life”.

For the molecule “SP-A: surfactant protein A (SP-A), 246 amino acids of human SP-A”, the “inhibition of aiPLA2 / PLA2 activity of Prdx6 (in words)” value with Prdx6 was “bind to Prdx6 preventing aiPLA2 activity; also recorded: binds to Prdx6 and inhibits its aiPLA2 activity”.
